Ends that are not written are not given here.
Experiments:
GST-BCL-2 [1] = molecular target: T1, GST-BCL-2 (Homo sapiens, UniProt P10415); assay: BH3 peptide displacement from GST-BCL-2 by fluorescence polarization; format: binding; settings: for IC50: read-out: IC50 (nM), BID Displacement
T1 construct: a GST-BCL-2 fusion protein lacking the C-terminal transmembrane domain was utilized; made in house; host or cells: E. coli BL21 DE3
Excerpt: (§1) To determine Kd for peptide binding to BCL-2, a GST-BCL-2 fusion protein lacking the C-terminal transmembrane domain was utilized. Peptides were synthesized with a fluorescein amino-terminus using an AHA linker. […] An increase in fluorescence polarization measured on a Perkin-Elmer LS 50B luminescence spectrophotometer was quantitated to calculate binding. A non-linear fit to a sigmoidal dose-response curve utilized the program Origin 6.0 to determine Kd. […] Data were fitted to a sigmoidal curve as above, and IC50 determined.
(§2) GST-BCL-2δC21 fusion proteins were induced in BL21 DE3 by 0.1 mM IPTG. The bacterial pellets were resuspended in lysis buffer (1 mg/ml lysozyme/1% Triton X-100/0.1 mg/ml PMSF/2 μg/ml aprotinin/2 μg/ml leupeptine/1 μg/ml pepstatin A in PBS) and sonicated. After centrifugation at 20,000×g for 20 min, the supernatant was applied to glutathione-agarose beads (Sigma). The beads were washed with PBS and treated with 50 mM glutathione/50 mM TrisHCl, pH8.0 to elute protein. Eluate was dialyzed against binding buffer and concentrated using Amicon centrifugal concentrating devices.

[2] = tested on: BCL-2 overexpressing mitochondria; assay: Cytochrome c release from BCL-2 overexpressing FL5.12 mitochondria; format: biochemical; settings: for capacity to overcome BCL-2 protection: with subliminal myrBID (30 nM); for cytochrome c release from mitochondria with overexpressed BCL-2, agent alone: 10 μM BIDBH3, 1 μM BIMBH3, 30 nM myrBID
Procedure: (§3) Mouse liver mitochondria were isolated from age-matched wt or Bak −/− mice. Livers were diced, subjected to Dounce rotary Teflon pestle disruption, then homogenized using a Kinematica Polytron homognizer. Following suspension in isolation buffer (250 mM sucrose, 10 mM Tris-HCl pH 7.4, 0.1 mM EGTA), mitochondria were isolated by differential centrifugation steps, followed by two washes in isolation buffer. Mitochondria from FL5.12 cells were isolated by cell disruption followed by differential centrifugation and washing as above. Cell disruption was performed either by a Kinematika Polytron homogenizer or by a combination of Dounce homogenization followed by 6-10 expulsions through a 27 gauge needle.
(§4) Mitochondria at a protein concentration of 0.5 mg/ml were treated at room temperature in experimental buffer (125 mM KCl, 10 mM Tris-MOPS pH 7.4, 5 mM glutamate, 2.5 mM malate, 1 mM KPO4, 10 µM EGTA-Tris pH 7.4). Percent release was quantitated using a colorimetric ELISA (MCTC0, R&D Systems). In all experiments, treatments with DMSO were used as a control for solvent activity.

[3] = Circular dichroism, α-helical content; format: physicochemical; settings: CD, 50 mM potassium phosphate pH 7, 20° C.
Procedure: Circular dichroism (CD) spectra were obtained on a Jasco J-710 spectropolarimeter at 20° C. using the following standard measurement parameters: wavelength, 190-260 nm; step resolution, 0.5 nm; speed, 20 nm/sec; accumulations, 10; response, 1 sec; band width, 1 nm; path length, 0.1 cm. Stock solutions of peptide were dissolved in deionized water and concentrations determined by amino acid analysis. Samples were then diluted in 50 mM potassium phosphate pH 7 to a calculated final concentration of 50 μM. The CD spectrum of each sample was measured in triplicate and a background spectrum of diluent alone was subtracted. For comparison, the subtracted CD spectra were normalized to 35 μM based on repeat peptide concentration determination by amino acid analysis of the diluted peptide solutions. The α-helical content of each peptide was calculated by dividing the mean residue ellipticity [q]222obs by the reported [q]222obs for a model helical decapeptide (Yang et al., 1986).

GST-BCL-2 [4] = molecular target: T1, GST-BCL-2; assay: Fluorescence polarization binding of fluoresceinated BH3 peptides to GST-BCL-2; settings: for Kd: 25 nM fluoresceinated peptide, GST-BCL-2 titration, 37° C., read-out: Kd (nM), BCL-2 Binding
Excerpt: as §1, §2

mitochondria = assay: Cytochrome c release from isolated mitochondria (ELISA); format: biochemical, mouse; settings: for cytochrome c release by peptide or protein alone: BIDBH3 at 10 μM, other concentrations not stated
Procedure: as §3, §4

BAK = molecular target: T2, BAK (Mus musculus, UniProt O08734); assay: BAK oligomerization, BMH cross-linking and immunoblot; format: biochemical; settings: 100 μM peptide, cross-linker BMH
T2 construct: capable of inducing an allosteric change in mitochondrial-resident BAK or BAX; from tissue
T2 sequence (O08734 1-209): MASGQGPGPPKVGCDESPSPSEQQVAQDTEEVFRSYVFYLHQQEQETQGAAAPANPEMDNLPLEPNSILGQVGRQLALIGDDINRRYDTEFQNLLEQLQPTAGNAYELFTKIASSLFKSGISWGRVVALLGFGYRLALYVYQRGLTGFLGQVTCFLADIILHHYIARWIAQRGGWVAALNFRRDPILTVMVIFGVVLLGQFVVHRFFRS
Procedure: (§5) 1,6-Bismaleimidohexane was obtained from Pierce (#22330). A 10 mM stock solution in DMSO was added to treated mitochondrial suspensions at a 1:11 dilution. Cross-linking took place for 30 minutes at room temperature, followed by centrifugation to pellet mitochondria. Pellets were dissolved in NuPAGE loading buffer (Invitrogen).
(§6) Antibodies used for immunoblot analysis included anti-cytochrome c (75981A, Pharmingen), anti-BAK (Upstate Biotechnology), and anti-BAX (N-20, Santa Cruz). Antibody detection was accomplished using enhanced chemiluminescence (Western Lightning, Perkin-Elmer).

BAX = molecular target: T3, BAX (Mus musculus, UniProt Q07813); assay: BAX oligomerization in mitochondria from FL5.12 cells, BMH cross-linking; format: biochemical; settings: 100 μM peptide
T3 construct: mitochondria isolated from cultured FL5.12 cells, which contain both BAX and BAK; endogenous in cells; host or cells: mitochondria isolated from FL5.12 cells
Procedure: as §5, §6

T1 sequence (P10415 1-218 limits assumed): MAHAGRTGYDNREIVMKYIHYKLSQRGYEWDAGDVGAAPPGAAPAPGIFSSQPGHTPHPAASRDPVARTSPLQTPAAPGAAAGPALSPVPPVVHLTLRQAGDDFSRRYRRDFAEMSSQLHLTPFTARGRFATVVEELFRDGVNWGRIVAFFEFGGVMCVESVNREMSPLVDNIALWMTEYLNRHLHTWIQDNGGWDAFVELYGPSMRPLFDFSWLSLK
T3 sequence (Q07813 whole entry): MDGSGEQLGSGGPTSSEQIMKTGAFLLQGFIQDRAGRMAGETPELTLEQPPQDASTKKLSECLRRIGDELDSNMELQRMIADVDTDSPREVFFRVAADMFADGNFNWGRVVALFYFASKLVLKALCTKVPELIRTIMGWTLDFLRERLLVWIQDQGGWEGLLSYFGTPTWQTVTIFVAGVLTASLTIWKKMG

Molecule: CC[C@H](C)[C@H](NC(=O)[C@H](CS)NC(=O)[C@H](C)NC(=O)[C@H](CC(C)C)NC(=O)[C@H](CCCNC(=N)N)NC(=O)[C@H](CC(C)C)NC(=O)[C@H](C)NC(=O)[C@H](CC(C)C)NC(=O)[C@H](C)NC(=O)[C@H](CC(=O)O)NC(=O)[C@H](CO)NC(=O)CNC(=O)[C@H](CCC(=O)O)NC(=O)[C@@H](N)CCSC)C(=O)NCC(=O)N[C@@H](CC(=O)O)C(=O)N[C@@H](CCC(=O)O)C(=O)N[C@@H](CCSC)C(=O)N[C@@H](CC(=O)O)C(=O)N[C@H](C(=O)O)C(C)C [BIKBH3]
- displacement of BIDBH3 from BCL-2 (GST-BCL-2 [1]): demonstrate the ability to displace BIDBH3
- IC50 (GST-BCL-2 [1]): 4920 nM
- restoration of cytochrome c release by myrBID ([2]; 100 μM BIKBH3): restore near-total cytochrome c release
- capacity to overcome BCL-2 protection [2]: significant, but lesser, potency
- % Helicity (222 nm) [3]: 8.5%
- Kd (GST-BCL-2 [4]): 485 nM

Molecule: CC[C@H](C)[C@H](NC(=O)[C@H](CCCCN)NC(=O)[C@H](CCCNC(=N)N)NC(=O)[C@H](CC(C)C)NC(=O)[C@H](CCC(N)=O)NC(=O)[C@H](C)NC(=O)[C@H](C)NC(=O)[C@H](Cc1ccccc1)NC(=O)[C@H](CCC(=O)O)NC(=O)[C@@H]1CCCN1C(=O)[C@@H]1CCCN1C(=O)[C@H](CC(C)C)NC(=O)[C@H](CCC(=O)O)NC(=O)[C@H](C)N)C(=O)NCC(=O)N[C@@H](CC(=O)O)C(=O)N[C@@H](CCCCN)C(=O)N[C@H](C(=O)N[C@@H](Cc1ccc(O)cc1)C(=O)N[C@@H](CS)C(=O)O)C(C)C [NOXAABH3]
- displacement of BIDBH3 from BCL-2 (GST-BCL-2 [1]): did not bind detectably to BCL-2 or displace BIDBH3 from BCL-2
- % Helicity (222 nm) [3]: 5.1%
- binding to BCL-2 (GST-BCL-2 [4]): did not bind detectably

Molecule: CC[C@H](C)[C@H](NC(=O)[C@H](CCCNC(=N)N)NC(=O)[C@H](CCCNC(=N)N)NC(=O)[C@H](CC(C)C)NC(=O)[C@H](CCC(N)=O)NC(=O)[C@H](C)NC(=O)[C@H](CS)NC(=O)[C@H](CCC(=O)O)NC(=O)[C@H](CC(=O)O)NC(=O)[C@H](CCCCN)NC(=O)[C@H](CC(C)C)NC(=O)[C@H](CC(=O)O)NC(=O)[C@H](C)NC(=O)[C@@H]1CCCN1)C(=O)NCC(=O)N[C@@H](CC(=O)O)C(=O)N[C@@H](CCCCN)C(=O)N[C@H](C(=O)N[C@@H](CC(N)=O)C(=O)N[C@@H](CC(C)C)C(=O)O)C(C)C [NOXABBH3]
- displacement of BIDBH3 from BCL-2 (GST-BCL-2 [1]): did not bind detectably to BCL-2 or displace BIDBH3 from BCL-2
- % Helicity (222 nm) [3]: 11.6%
- binding to BCL-2 (GST-BCL-2 [4]): did not bind detectably

Molecule: CSCC[C@H](NC(=O)[C@H](CCCNC(=N)N)NC(=O)[C@H](CCCNC(=N)N)NC(=O)[C@H](CC(C)C)NC(=O)[C@H](CCC(=O)O)NC(=O)[C@H](CCCNC(=N)N)NC(=O)CNC(=O)[C@H](Cc1ccc(O)cc1)NC(=O)[C@H](CCCNC(=N)N)NC(=O)[C@H](CCC(N)=O)NC(=O)[C@H](C)NC(=O)[C@H](C)NC(=O)[C@H](Cc1c[nH]c2ccccc12)NC(=O)[C@H](CC(C)C)NC(=O)[C@@H](N)CC(N)=O)C(=O)N[C@@H](CO)C(=O)N[C@@H](CC(=O)O)C(=O)N[C@@H](CCC(=O)O)C(=O)N[C@@H](Cc1ccccc1)C(=O)N[C@H](C(=O)N[C@@H](CC(=O)O)C(=O)N[C@@H](CO)C(=O)N[C@@H](Cc1ccccc1)C(=O)N[C@@H](CCCCN)C(=O)N[C@@H](CCCCN)C(=O)O)C(C)C [BADBH3]
- cytochrome c release by peptide or protein alone (mitochondria): inactive in this assay
- cytochrome c release by peptide alone (mitochondria; even at 100 μM): cannot activate BAK or release cytochrome c
- displacement of BIDBH3 from BCL-2 (GST-BCL-2 [1]): can efficiently displace pre-bound BIDBH3 peptide from BCL-2
- restoration of cytochrome c release to BIDBH3 and BIMBH3 ([2]; 100 μM BADBH3): to levels observed for wt mitochondria
- restoration of sensitivity to myrBID ([2]; 200 μM BADBH3): markedly restores their sensitivity to even 1 nM myrBID
- lowest concentration with measurable activity in inhibiting BCL-2 and enabling cytochrome c release by myrBID ([2]; FL5.12-BCL-2 mitochondria): 1 µM
- capacity to overcome BCL-2 protection [2]: most prominently demonstrates the capacity to overcome BCL-2 protection
- BAK oligomerization (BAK): unable to induce BAK oligomerization
- % Helicity (222 nm) [3]: 23.9%
- affinity for BCL-2 relative to BIDBH3 peptide (GST-BCL-2 [4]): approximately 5 fold
- oligomerization of BAX (BAX): not

Molecule: CC[C@H](C)[C@H](NC(=O)[C@H](CC(N)=O)NC(=O)[C@H](CCCNC(=N)N)NC(=O)[C@@H](NC(=O)[C@@H](NC(=O)[C@H](CC(=O)O)NC(=O)[C@@H](N)CCC(=O)O)[C@@H](C)CC)[C@@H](C)CC)C(=O)N[C@@H](C)C(=O)N[C@@H](CCCNC(=N)N)C(=O)N[C@@H](Cc1c[nH]cn1)C(=O)N[C@@H](CC(C)C)C(=O)N[C@@H](C)C(=O)N[C@@H](CCC(N)=O)C(=O)N[C@H](C(=O)NCC(=O)N[C@@H](CC(=O)O)C(=O)N[C@@H](CO)C(=O)N[C@@H](CCSC)C(=O)N[C@@H](CC(=O)O)C(=O)N[C@@H](CCCNC(=N)N)C(=O)O)C(C)C [BIDBH3]
- concentration required for near total release of cytochrome c (mitochondria): 10 µM
- cytochrome c release, Bak +/+ vs. −/− mitochondria (mitochondria; 100 μM peptide, liver mitochondria): BAK is required for the release of cytochrome c
- cytochrome c release by peptide or protein alone (mitochondria): capable of initiating cytochrome c release
- displacement of BADBH3 from BCL-2 (GST-BCL-2 [1]): does not effectively displace BADBH3 from BCL-2
- cytochrome c release from mitochondria with overexpressed BCL-2, agent alone [2]: failing to release cytochrome c
- BAK oligomerization (BAK): induces BAK oligomerization
- % Helicity (222 nm) [3]: 19.5%
- oligomerization of BAX (BAX): could also induce oligomerization of BAX

Molecule: VIPMAAVKQALREAGDEFEL [BCLXBH3]
- IC50 (GST-BCL-2 [1]): > 30000 nM
- Kd (GST-BCL-2 [4]): > 1000 nM

B1: myrBID: recombinant p7/myrp15, myristoylated BID complex (protein, UniProt P55957 1-195, looked up)
BH3-interacting domain death …: MDCEVNNGSSLRDECITNLLVFGFLQSCSDNSFRRELDALGHELPVLAPQWEGYDELQTDGNRSSHSRLGRIEADSESQEDIIRNIARHLAQVGDSMDRSIPPGLVNGLALQLRNTSRSEEDRNRDLATALEQLLQAYPRDMEKEKTMLVLALLLAKKVASHTPSLLRDVFHTTVNFINQNLRTYVRSLARNGMD
modifications: myristoylated; p7/p15 cleaved complex
- concentration required for near total release of cytochrome c (mitochondria): 0.01 µM
- cytochrome c release by peptide or protein alone (mitochondria): capable of initiating cytochrome c release
- cytochrome c release from mitochondria with overexpressed BCL-2, agent alone [2]: failing to release cytochrome c
